Results from patent US12421253B2 (Mirati Therapeutics, Inc., priority 2020, dated 2025).

Experiments:
[1] = molecular target: T1, KRas^G12D (Homo sapiens, UniProt P01116, G12D); experiment: KRas binding assay (TR-FRET displacement of Cy5 labelled tracer)
T1 construct: […]; biotin (biotinylated); purchased Accelegan Inc

[2] = molecular target: T2, KRas^G12R (Homo sapiens, UniProt P01116, G12R); experiment: as above
T2 construct: […]; biotin (biotinylated); purchased Accelegan Inc

[3] = molecular target: T3, KRas^G12V (Homo sapiens, UniProt P01116, G12V); experiment: as above
T3 construct: […]; biotin (biotinylated); purchased Accelegan Inc
T3 sequence (P01116 1-169 isoform P01116-2 G12V): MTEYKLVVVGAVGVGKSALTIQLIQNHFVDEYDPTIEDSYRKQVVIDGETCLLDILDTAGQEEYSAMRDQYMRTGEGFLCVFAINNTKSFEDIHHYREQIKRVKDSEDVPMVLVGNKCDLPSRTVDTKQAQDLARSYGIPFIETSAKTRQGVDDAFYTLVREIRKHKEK

[4] = test system: A549 cells, pERK; experiment: Inhibition of KRas phosphorylation of ERK (Cisbio HTRF Advanced pERK assay); format: cell-based; conditions: Homo sapiens, 3 hrs, read-out: Inhibition (HTRF IC50 nM) of KRas-mediated Phosphorylation of ERK, A549
How it was run: (§1)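 pERK measured by HTRF in lysates from cells treated 3 h with compound, 10 uM top, 3-fold steps, 10 doses, 0.8% DMSO final. Cells (6,000/well, RPMI 10% FBS) had been plated overnight at 37 °C; 0.2 uM trametinib defined minimum signal; antibody detection 2 h at room temperature.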

[5] = test system: ASPC1 cells, pERK; experiment: as above; format: cell-based; conditions: Homo sapiens, ASPC1, 3 h, AsPC-1 cells, read-out: Inhibition (HTRF IC50 nM) of KRas-mediated Phosphorylation of ERK, AsPC-1
How it was run: as §1

[6] = test system: H358 cells, pERK; experiment: as above; format: cell-based; conditions: Homo sapiens, NCI-H358, 3 hrs, read-out: Inhibition (HTRF IC50 nM) of KRas-mediated Phosphorylation of ERK, H358
How it was run: as §1

[7] = test system: H460 cells, pERK; experiment: as above; format: cell-based; conditions: Homo sapiens, NCI-H460, 3 hrs, read-out: Inhibition (HTRF IC50 nM) of KRas-mediated Phosphorylation of ERK, H460
How it was run: as §1

[8] = test system: H727 cells, pERK; experiment: as above; format: cell-based; conditions: Homo sapiens, NCI-H727, 3 h, read-out: Inhibition (HTRF IC50 nM) of KRas-mediated Phosphorylation of ERK, H727
How it was run: as §1

[9] = test system: HCT116 cells, pERK; experiment: as above; format: cell-based; conditions: Homo sapiens, HCT-116, 3 hrs, read-out: Inhibition (HTRF IC50 nM) of KRas-mediated Phosphorylation of ERK, HCT116
How it was run: as §1

[10] = test system: MKN1 cells, pERK; experiment: as above; format: cell-based; conditions: Homo sapiens, MKN-1, 3 h, read-out: Inhibition (HTRF IC50 nM) of KRas-mediated Phosphorylation of ERK, MKN1
How it was run: as §1

[11] = test system: PSN1 cells, pERK; experiment: as above; format: cell-based; conditions: Homo sapiens, PSN1, 3 h, read-out: Inhibition (HTRF IC50 nM) of KRas-mediated Phosphorylation of ERK, PSN1
How it was run: as §1

T2 sequence (P01116 1-169 isoform P01116-2 G12R): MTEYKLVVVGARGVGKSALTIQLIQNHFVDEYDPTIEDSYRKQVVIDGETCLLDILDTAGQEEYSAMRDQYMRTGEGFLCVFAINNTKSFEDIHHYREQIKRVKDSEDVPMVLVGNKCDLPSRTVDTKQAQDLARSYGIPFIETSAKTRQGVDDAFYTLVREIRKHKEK
T1 sequence (P01116 1-169 isoform P01116-2 G12D): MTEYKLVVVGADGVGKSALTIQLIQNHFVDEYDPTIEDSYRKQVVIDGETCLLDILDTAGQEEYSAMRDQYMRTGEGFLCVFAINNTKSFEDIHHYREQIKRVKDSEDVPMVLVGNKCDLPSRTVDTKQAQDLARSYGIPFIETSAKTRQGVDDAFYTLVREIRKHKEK

Compound | IC50 [1] [nM] | IC50 [2] [nM] | IC50 [3] [nM] | IC50 [4] [nM] | IC50 [5] [nM] | IC50 [6] [nM] | IC50 [7] [nM] | IC50 [8] [nM] | IC50 [9] [nM] | IC50 [10] [nM] | IC50 [11] [nM]
CCc1c(F)ccc2cc(O)cc(N3CCc4c(nc(OC[C@@]56CCCN5C[C@H](F)C6)nc4N4CCC[C@]5(C4)NC(=O)NC5=O)C3)c12 [Example 196, (R)-7-(7-(8-ethyl-7-fluoro-3-hydroxynaphthalen-1-yl)-2-(((2R,7aS)-2-fluorohexahydro-1H-pyrrolizin-7a-yl)methoxy)-5,6,7,8-tetrahydropyrido[3,4-d]pyrimidin-4-yl)-1,3,7-triazaspiro[4.5]decane-2,4-dione] | ≤ 2 | ≤ 2 | ≤ 2 | 2 | 6 | 1 | 2 | 11 | 5 | 5 | 18
CN(C)C(=O)c1cc2n(n1)CCCN(c1nc(OC[C@@]34CCCN3C[C@H](F)C4)nc3c1CCN(c1cc(O)cc4ccc(F)c(Br)c14)C3)C2 [Example 218, 5-(7-(8-bromo-7-fluoro-3-hydroxynaphthalen-1-yl)-2-(((2R,7aS)-2-fluorohexahydro-1H-pyrrolizin-7a-yl)methoxy)-5,6,7,8-tetrahydropyrido[3,4-d]pyrimidin-4-yl)-N,N-dimethyl-5,6,7,8-tetrahydro-4H-pyrazolo[1,5-a][1,4]diazepine-2-carboxamide] | ≤ 2 | ≤ 2 | ≤ 2 | 294 | 46 | 61 | 845 | 86 | 1340 | 85 | 6070
CCc1c(F)ccc2cc(O)cc(N3CCc4c(nc(OC[C@@]56CCCN5C[C@H](F)C6)nc4N4CCCC5(CNC(=O)N5)C4)C3)c12 (stereo partly drawn) [Example 62, 7-(7-(8-ethyl-7-fluoro-3-hydroxynaphthalen-1-yl)-2-(((2R,7aS)-2-fluorohexahydro-1H-pyrrolizin-7a-yl)methoxy)-5,6,7,8-tetrahydropyrido[3,4-d]pyrimidin-4-yl)-1,3,7-triazaspiro[4.5]decan-2-one] | ≤ 2 | ≤ 2 | ≤ 2 | 25 | 15 | 11 | 69 | 81 | 125 | 4 | 325
O=S1(=O)NCC2(CCCN(c3nc(OC[C@@]45CCCN4C[C@H](F)C5)nc4c3CCN(c3cc(O)cc5ccc(F)c(Cl)c35)C4)C2)N1 (stereo partly drawn) [Example 72, 7-(7-(8-chloro-7-fluoro-3-hydroxynaphthalen-1-yl)-2-(((2R,7aS)-2-fluorohexahydro-1H-pyrrolizin-7a-yl)methoxy)-5,6,7,8-tetrahydropyrido[3,4-d]pyrimidin-4-yl)-2-thia-1,3,7-triazaspiro[4.5]decane 2,2-dioxide] | ≤ 2 | ≤ 2 | ≤ 2 | 32 | 10 | 8 | 59 | 59 | 126 | 7 | 148
O=C1NCC2(CCCN(c3nc(OC[C@@]45CCCN4C[C@H](F)C5)nc4c3CCN(c3cc(O)cc5ccc(F)c(Br)c35)C4)C2)N1 (stereo partly drawn) [Example 216, 7-(7-(8-bromo-7-fluoro-3-hydroxynaphthalen-1-yl)-2-(((2R,7aS)-2-fluorohexahydro-1H-pyrrolizin-7a-yl)methoxy)-5,6,7,8-tetrahydropyrido[3,4-d]pyrimidin-4-yl)-1,3,7-triazaspiro[4.5]decan-2-one] | ≤ 2 | 3 | ≤ 2 | 206 | 92 | 27 | 293 | 300 | 531 | 19 | 1260
CCc1c(F)ccc2cc(O)cc(N3CCc4c(nc(OCC56CCCN5CCC6)nc4N4CCCn5nc(C(=O)N(C)C)cc5C4)C3)c12 [Example 175, 5-[7-(8-ethyl-7-fluoro-3-hydroxy-1-naphthyl)-2-(1,2,3,5,6,7-hexahydropyrrolizin-8-ylmethoxy)-6,8-dihydro-5H-pyrido[3,4-d]pyrimidin-4-yl]-N,N-dimethyl-4,6,7,8-tetrahydropyrazolo[1,5-a][1,4]diazepine-2-carboxamide] | ≤ 2 | ≤ 2 | ≤ 2 | 326 | 53 | 50 | 750 | 85 | 1120 | 58 | 7860

More lines, now with the values ahead:

IC50 [1] [nM] | IC50 [2] [nM] | IC50 [3] [nM] | IC50 [4] [nM] | IC50 [5] [nM] | IC50 [6] [nM] | IC50 [7] [nM] | IC50 [8] [nM] | IC50 [9] [nM] | IC50 [10] [nM] | IC50 [11] [nM] | Compound
≤ 2 | ≤ 2 | ≤ 2 | 142 | 62 | 77 | 578 | 264 | 832 | 27 | 9110 | CCc1c(F)ccc2cc(O)cc(N3CCc4c(nc(OCC5(CN(C)C)CC5)nc4N4C[C@@H]5C(=O)NC(=O)[C@@H]5C4)C3)c12 [Example 200, (3aS,6aR)-5-[2-[[1-[(dimethylamino)methyl]cyclopropyl]methoxy]-7-(8-ethyl-7-fluoro-3-hydroxy-1-naphthyl)-6,8-dihydro-5H-pyrido[3,4-d]pyrimidin-4-yl]-3a,4,6,6a-tetrahydropyrrolo[3,4-c]pyrrole-1,3-dione]
≤ 2 | ≤ 2 | ≤ 2 | 201 | 43 | 65 | 242 | 262 | 441 | 31 | 2500 | CCc1c(F)ccc2cc(O)cc(N3CCc4c(nc(OCC5(CN(C)C)CC5)nc4N4CCC[C@@](C)(O)C4)C3)c12 [Example 199, (R)-1-(2-((1-((dimethylamino)methyl)cyclopropyl)methoxy)-7-(8-ethyl-7-fluoro-3-hydroxynaphthalen-1-yl)-5,6,7,8-tetrahydropyrido[3,4-d]pyrimidin-4-yl)-3-methylpiperidin-3-ol]
≤ 2 | 4 | ≤ 2 | 14 | 49 | 12 | 26 | 176 | 49 | 49 | 80.5 | CCc1c(F)ccc2cc(O)cc(N3CCc4c(nc(OCC5(CN(C)C)CC5)nc4N4CCCC5(C4)NC(=O)NC5=O)C3)c12 (stereo not drawn) [Example 201, 7-(2-((1-((dimethylamino)methyl)cyclopropyl)methoxy)-7-(8-ethyl-7-fluoro-3-hydroxynaphthalen-1-yl)-5,6,7,8-tetrahydropyrido[3,4-d]pyrimidin-4-yl)-1,3,7-triazaspiro[4.5]decane-2,4-dione]
